These results are taken from PMC12838644, “Dihydrotanshinone as a Natural Product-Based CYP17A1 Lyase Inhibitor for Hyperandrogenic Disorders” (Biomolecules, 2026).

Like-named read-outs stand apart in the source and are kept apart here. Some results are limits rather than exact numbers.

The target of one test is T1, CYP17A1 17,20-lyase (Homo sapiens, UniProt P05093).
T1 sequence (P05093 1-508): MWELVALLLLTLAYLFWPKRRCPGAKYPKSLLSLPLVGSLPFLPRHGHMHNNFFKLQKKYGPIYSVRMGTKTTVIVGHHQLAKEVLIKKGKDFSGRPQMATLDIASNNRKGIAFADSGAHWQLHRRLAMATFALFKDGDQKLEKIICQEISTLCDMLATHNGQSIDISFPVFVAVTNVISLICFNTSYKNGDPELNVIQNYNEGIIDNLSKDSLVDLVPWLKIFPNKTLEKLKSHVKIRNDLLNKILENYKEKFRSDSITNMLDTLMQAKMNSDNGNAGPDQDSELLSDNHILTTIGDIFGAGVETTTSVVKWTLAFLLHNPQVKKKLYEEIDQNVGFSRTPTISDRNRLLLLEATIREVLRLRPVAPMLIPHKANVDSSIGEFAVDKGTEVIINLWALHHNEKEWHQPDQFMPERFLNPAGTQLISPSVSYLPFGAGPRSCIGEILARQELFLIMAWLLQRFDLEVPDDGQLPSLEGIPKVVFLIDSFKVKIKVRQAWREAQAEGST
In words: CYP17A1 17,20-lyase activity assay (DHEA from 17OH-pregnenolone, POR, CYP17A1 and cytochrome b5). In kind it is biochemical. The note with it: for inhibition at 10 µM: read-out: % Inhibition CYP17A1-Lyase; for Residual 17,20-lyase activity: % of DMSO control; for Lyase/CYP21A2 Selectivity Index: (% Inhibition Lyase)/(% Inhibition CYP21A2) at 10 µM (SM 10 µg/mL); for Lyase/OH Selectivity Index: (% Inhibition Lyase)/(% Inhibition OH) at 10 µM (SM 10 µg/mL). The method, then: Assay of CYP17A1 17α-hydroxylase and 17,20-lyase activities were performed as described previously. The 17α-hydroxylase activity was measured by conversion of progesterone to 17OH-progesterone, while production of DHEA from 17OH-pregnenolone was used for monitoring the 17,20-lyase activity of CYP17A1. In vitro CYP17A1 assays were performed using a liposome system consisting of human p450 oxidoreductase (POR) and CYP17A1 at a ratio of 3:4 (POR: CYP17A1). […] The drugs were added to the final mixture and incubated for 1h before the catalytic reaction was initiated by the addition of NADPH to 1 mM final concentration. Radiolabeled [^14C]-progesterone (10,000 cpm in 1 µM) was used as a tracer in each reaction. Steroids were extracted and separated by thin-layer chromatography (TLC) on silica gel (SIL G/UV254) TLC plates (Macherey-Nagel, Oensingen, Switzerland) as previously described.
In vitro CYP17A1 17,20-lyase activity assays were performed using POR, CYP17A1 and cytochrome b5 as described previously. The final assay mixture consisted of proteins, 10 mM MgCl2, 6 mM KOAc, 0.05 mg/mL DLPC, 1 mM reduced glutathione in 50 mM HEPES-NaOH buffer (pH 7.4), and the reaction volume was 200 μL. The drugs were added to the final mixture and incubated for 1h before the catalytic reaction was initiated by the addition of NADPH to 1 mM final concentration. Radiolabeled [^3H]-17OH-pregnenolone (50,000 cpm in 1 µM) was added as a tracer and the enzyme activity was measured by using the scintillation counter in the water release assay.

The target of the next test is T2, CYP17A1 17α-hydroxylase (Homo sapiens, UniProt P05093).
T2 sequence (P05093 1-508): T1 sequence (P05093 1-508)
Description: CYP17A1 17α-hydroxylase activity assay (progesterone to 17OH-progesterone, reconstituted POR/CYP17A1). Type of test: biochemical. The note with it: for inhibition at 10 µM: read-out: % Inhibition CYP17A1-OH. The method, then: Assay of CYP17A1 17α-hydroxylase and 17,20-lyase activities were performed as described previously. The 17α-hydroxylase activity was measured by conversion of progesterone to 17OH-progesterone, while production of DHEA from 17OH-pregnenolone was used for monitoring the 17,20-lyase activity of CYP17A1. In vitro CYP17A1 assays were performed using a liposome system consisting of human p450 oxidoreductase (POR) and CYP17A1 at a ratio of 3:4 (POR: CYP17A1). The final assay mixture consisted of proteins (37.5 […] CYP17A1), 10 mM MgCl2, 6 mM potassium acetate (KOAc), 0.05 mg/mL DLPC,1 mM reduced Glutathione in 50 mM HEPES-NaOH buffer (pH 7.4), and the reaction volume was 200 μL. The drugs were added to the final mixture and incubated for 1h before the catalytic reaction was initiated by the addition of NADPH to 1 mM final concentration. Radiolabeled [^14C]-progesterone (10,000 cpm in 1 µM) was used as a tracer in each reaction. Steroids were extracted and separated by thin-layer chromatography (TLC) on silica gel (SIL G/UV254) TLC plates (Macherey-Nagel, Oensingen, Switzerland) as previously described.

A further test relates to RWPE-1 cells. In words: alamarBlue cytotoxicity assay, RWPE-1. In kind it is cell-based. The note with it: Homo sapiens, read-out: RWPE-1 (IC50). The method, then:
RWPE-1 cells (ATCC: CRL-36O7) were cultured in keratinocyte serum-free media (K-SFM) supplemented with 0.05 mg/mL bovine pituitary extract and 5 ng/mL epidermal growth factor, and 1% penicillin (100 U/mL; Thermo Fisher Scientific, Waltham, MA, USA), and streptomycin (100 μg/mL; GIBCO). […] Passage numbers remained below 30 as per standard procedures. All cell lines were validated and characterized before use to ensure their authenticity and reliability. Routine mycoplasma testing was conducted to confirm that the cells were free from contamination. Additionally, key functional and morphological characteristics were assessed to verify their alignment with previously reported profiles.
The alamarBlue® assay (Thermo Fisher Scientific, Waltham, MA USA) was conducted as previously described. RWPE-1 cells, HEK-293 cells, and NCI-H295R cells were plated in 96-well plates at 10,000 cells per well and incubated overnight at 37 °C with 5% CO2. […] Cells were incubated for an additional 24 h. Cell viability was measured using the alamarBlue® assay. Post-incubation, 0.05 mg/mL alamarBlue® solution in phosphate-buffered saline (PBS) was added to each well. The plates were incubated in the dark at 37 °C with 5% CO2 for 4 h, and fluorescence was measured at an excitation wavelength of 540 nm and an emission wavelength of 590 nm. Cell viability was calculated relative to the control sample treated with DMSO. All experiments were conducted in triplicate.

Setting [1] is: 10 µM (SM extract 10 µg/mL), calculated as 100% − % residual activity.
Setting [2] is: RWPE-1, cytotoxicity, alamarBlue, 24 h incubation, mean ± SD, three experiments.

Broadly, the inhibition is how much of the control response was suppressed. In general, IC50 refers to the point on the concentration scale where inhibition reaches its midpoint. Consider `Cc1coc2c1C(=O)C(=O)c1c-2ccc2c1CCCC2(C)C` [TAII, tanshinone IIA], for which the inhibition at 10 µM on CYP17A1 17,20-lyase (setting [1]) is 43%. For the same molecule, at CYP17A1 17,20-lyase (10 µM (SM extract 10 µg/mL)), the “Residual 17,20-lyase activity” value was found to be 57%. For the same molecule, at CYP17A1 17,20-lyase, the “Lyase/CYP21A2 Selectivity Index” value is reported as “High ^c” and the “Lyase/OH Selectivity Index” value was “High ^c”. In addition, the inhibition at 10 µM at CYP17A1 17α-hydroxylase (setting [1]) is less than 1%. For the same molecule, the IC50 with RWPE-1 cells (setting [2]) amounted to 4.5 ± 11.8 µM.
For `Cc1coc2c1C(=O)C(=O)c1c-2ccc2c(C)cccc12` [TAI, tanshinone I], the inhibition at 10 µM on CYP17A1 17,20-lyase (setting [1]) is 28.2%. Also, the “Residual 17,20-lyase activity” value on CYP17A1 17,20-lyase (10 µM (SM extract 10 µg/mL)) is listed as 72%. At CYP17A1 17,20-lyase, the “Lyase/CYP21A2 Selectivity Index” value is given as “High ^c” and the “Lyase/OH Selectivity Index” value is “High ^c”. At CYP17A1 17α-hydroxylase (setting [1]), the inhibition at 10 µM was less than 1%. For the same molecule, the IC50 with RWPE-1 cells (setting [2]) was 2.27 ± 3.25 µM.
Turning to `Cc1cccc2c3c(ccc12)C1=C(C(=O)C3=O)[C@@H](C)CO1` [DT, dihydrotanshinone I], on CYP17A1 17,20-lyase (10 µM (SM extract 10 µg/mL)), the “Residual 17,20-lyase activity” value is 43%. Besides, the “Lyase/CYP21A2 Selectivity Index” value on CYP17A1 17,20-lyase turned out to be 3.80. The inhibition at 10 µM at CYP17A1 17,20-lyase was 56.6%; on CYP17A1 17α-hydroxylase, 6.5%. Moreover, the “Residual 17α-hydroxylase activity” value on CYP17A1 17α-hydroxylase (% of DMSO control, 10 µM (SM extract 10 µg/mL)) is reported as greater than 93%. For the same molecule, the IC50 in the test with RWPE-1 cells (RWPE-1, 24 h) worked out at 1.4 ± 0.42 µM.
